The source of these data is patent publication US20040259942A1, “Modulation of stat activity” (priority 2001, published 2004).

One test deals with ErbB2. The test can be described thus: Tyrosine phosphorylation of ErbB2: immunoprecipitation and anti-phosphotyrosine immunoblot. The following applies: EGF. It counts as cell-based, human. The procedure:
(§1) For immunoprecipitation and immunoblotting experiments, cells were grown to confluence in 10 cm dishes and maintained in full medium or starved in serum-free medium overnight before the application of appropriate stimuli. Lysates were prepared in TBSN buffer (50 mM Tris-HCl pH7.5, 150 mM NaCl, 1 mM EDTA, 1% NP-40) supplemented with protease inhibitors (1 mM Na3 VO4, 10 mM Na4P2O7, 10 mM NaF, 5 mM EGTA, 10 mM Benzamidine, 0.2 mM PMSF and 1 μg/ml each of leupeptin, aprotinin, pepstatin). Lysates were cleared by centrifugation at 16,000×g for 10 minutes and used directly for immunoprecipitations or stored at −20° C. for further use.
(§2) Equal amounts of lysates were incubated with the appropriate antibody for 2 hours at 4° C.
(§3) Immune complexes were then allowed to bind to protein A-Sepharose beads for 1 hour at 4° C. and collected by centrifugation. Immunoprecipitates were washed three times in 100 mM Tris-HC1 pH 7.5, […], 1 mM EDTA, 0.1 mM PMSF, 0.5% NP-40. Thereafter, samples were taken up in sodium dodecyl sulphate (SDS) loading buffer and boiled for 5 min.
(§4) Samples were separated by electrophoresis through 6% polyacrylamide-SDS gels. Proteins were then transferred to polyvinylidene difluoride (PVDF) membranes with a semi-dry electroblotting apparatus. […]
(A western blot detects proteins with antibodies after separation by electrophoresis.)

Another test relates to ErbB3. The test can be described thus: Tyrosine phosphorylation of ErbB3: immunoprecipitation and anti-phosphotyrosine immunoblot. It counts as cell-based, human. The procedure:
as §1, §2, §3, §4

A further test deals with MDA-MB-468 cells. The test can be described thus: Cell proliferation assay (cell counting). The settings on record: for effect on proliferation over 48 hours: PD 153035 100 nM, PD 168393 2 μM. The test is classed as cell-based, human. The procedure: (§5) Equal numbers of BR293 and MDA-MB-468 cells were seeded in MEM containing 10% FCS into 10 cm dishes. […]. For the 48 time points, fresh medium containing the appropriate inhibitor was applied to the cells after 24 hours. Controls were allowed to grow for 48 hours in the absence of inhibitor. Thereafter, all the cells were washed twice with ice cold PBS, harvested and counted under a phase-contrast microscope. Values are expressed as averages+S.D. (n=3).
(§6) Equal numbers of BR293, MCF-10F, MCF-7, MDA-MB-468, HKEK293 and COS1 cells were seeded in the appropriate growth medium into 10 cm dishes. Cells were allowed to grow in the presence of various concentrations of OdDHL or OHHL for 24 or 48 hours. For the 48-hour time points, fresh medium containing the appropriate inhibitor was applied to the cells after 24 hours. Controls were allowed to grow for 48 hours in the absence of inhibitor. Thereafter, all the cells were washed twice with ice cold PBS, harvested and counted under a phase-contrast microscope. Values are expressed as averages ±S.D. (n=3).

A further test relates to BR293 cells. The test can be described thus: Cell proliferation assay (cell counting). It counts as cell-based, human. The following applies: for effect on proliferation over 48 hours: PD 153035 100 nM, PD 168393 2 μM. The protocol: as §5, §6
In test [1] the test system is STAT3. The test can be described thus: Weak constitutive STAT3 DNA-binding in serum-starved cells (EMSA supershift). It counts as cell-based, human. (In EMSA bound probe runs differently from free probe, usually more slowly.)
In test [2] the test system is STAT3. The test can be described thus: STAT3 activation by conditioned medium (CM) from serum-stimulated BR293 cells. It counts as cell-based, human. The following applies: serum-starved BR293 cells treated with AG490. The protocol: OdDHL blocks the autocrine release of mitogens from BC cells (a) Equal numbers of BR293 cells were cultured in MEM alone, serum-free MEM conditioned by serum-stimulated BR293 cells for 2 hours, or the same supplemented with 5% FCS, as indicated. After 24 hours [^3H]-thymidine was added to the medium. After a further 18 hours, cells were harvested and analysed for incorporation of ^3H. Error bars denote SD (n=4). (b) BR293 cells were serum-starved (lane 1) or starved and stimulated with 10% FCS for 2 hours directly (lane 2) or after pretreatment with α-amanitin (1004/ml) for 2.5 hours (lane 3) or actinomycin D ([…]) for 10 min (lane 4). […] Cell lysates were prepared and analysed by Western blotting as described in the legend to FIG. 1a. […] Lysates were prepared from all the cells and analysed by Western blotting as described in the legend to FIG. 1a.
Serum-starved BR293 cells were stimulated with 10% foetal calf serum (FCS) and, after 2 hours, half the cells were harvested while the other cells were washed thoroughly and incubated for a further 4 hours in serum-free medium. […] Nuclear extracts were made from all the cells and analysed for STAT DNA-binding. […]

For another test, the system named is BC cell. The settings on record: ref (7); cited from earlier work.
The next test concerns the target T1, JAK2 (Homo sapiens, UniProt O60674).
T1 construct: endogenous in cells; host or cells: BR293
Kind of test: Serum-induced JAK2 tyrosine phosphorylation (immunoblot). It counts as cell-based. The following applies: BR293 cells; 2 hour time course; AG490 pre-treatment. The protocol:
as §1, §2, §3, §4

In another test the test system is MCF-10F cells. The following applies: previously shown (refs 5, 11); cited from earlier work.
In test [3] the test system is STAT3. The test can be described thus: Serum-induced STAT3 tyrosine phosphorylation (immunoblot). The following applies: BR293 cells; full medium, 2 hour time course; AG490 pre-treatment. The test is classed as cell-based, human. The protocol:
as §1, §2, §3
Samples were separated by electrophoresis through 6% polyacrylamide-SDS gels. Proteins were then transferred to polyvinylidene difluoride (PVDF) membranes with a semi-dry electroblotting apparatus. The membranes were incubated with appropriate primary antibodies at room temperature for 1 hour or 4° C. overnight according to suppliers' instructions, washed and stained with horseradish peroxidase-coupled secondary antibodies. The membranes were developed with an enhanced chemiluminescence kit (Amersham).
as §1, with “Na3VO4,” for “Na3 VO4,”, “aprotinin and” for “aprotinin,”, “use. AG490 was purchased from Sigma; PD153035 was provided by Glaxo-Smith-Kline and PD168393 was purchased from Calbiochem.” for “use.”
Equal amounts of lysates were incubated with the appropriate antibody for 2 hours at 4° C. Immune complexes were then allowed to bind to protein A-Sepharose beads for 1 hour at 4° C. and collected by centrifugation. Immunoprecipitates were washed three times in 10 mM Tris-HCl pH 7.5, 100 mM NaCl, 1 mM EDTA, 0.1 mM PMSF, 0.5% NP-40. Thereafter, samples were taken up in sodium dodecyl sulphate (SDS) loading buffer and boiled for 5 min.

T1 sequence (O60674 whole entry): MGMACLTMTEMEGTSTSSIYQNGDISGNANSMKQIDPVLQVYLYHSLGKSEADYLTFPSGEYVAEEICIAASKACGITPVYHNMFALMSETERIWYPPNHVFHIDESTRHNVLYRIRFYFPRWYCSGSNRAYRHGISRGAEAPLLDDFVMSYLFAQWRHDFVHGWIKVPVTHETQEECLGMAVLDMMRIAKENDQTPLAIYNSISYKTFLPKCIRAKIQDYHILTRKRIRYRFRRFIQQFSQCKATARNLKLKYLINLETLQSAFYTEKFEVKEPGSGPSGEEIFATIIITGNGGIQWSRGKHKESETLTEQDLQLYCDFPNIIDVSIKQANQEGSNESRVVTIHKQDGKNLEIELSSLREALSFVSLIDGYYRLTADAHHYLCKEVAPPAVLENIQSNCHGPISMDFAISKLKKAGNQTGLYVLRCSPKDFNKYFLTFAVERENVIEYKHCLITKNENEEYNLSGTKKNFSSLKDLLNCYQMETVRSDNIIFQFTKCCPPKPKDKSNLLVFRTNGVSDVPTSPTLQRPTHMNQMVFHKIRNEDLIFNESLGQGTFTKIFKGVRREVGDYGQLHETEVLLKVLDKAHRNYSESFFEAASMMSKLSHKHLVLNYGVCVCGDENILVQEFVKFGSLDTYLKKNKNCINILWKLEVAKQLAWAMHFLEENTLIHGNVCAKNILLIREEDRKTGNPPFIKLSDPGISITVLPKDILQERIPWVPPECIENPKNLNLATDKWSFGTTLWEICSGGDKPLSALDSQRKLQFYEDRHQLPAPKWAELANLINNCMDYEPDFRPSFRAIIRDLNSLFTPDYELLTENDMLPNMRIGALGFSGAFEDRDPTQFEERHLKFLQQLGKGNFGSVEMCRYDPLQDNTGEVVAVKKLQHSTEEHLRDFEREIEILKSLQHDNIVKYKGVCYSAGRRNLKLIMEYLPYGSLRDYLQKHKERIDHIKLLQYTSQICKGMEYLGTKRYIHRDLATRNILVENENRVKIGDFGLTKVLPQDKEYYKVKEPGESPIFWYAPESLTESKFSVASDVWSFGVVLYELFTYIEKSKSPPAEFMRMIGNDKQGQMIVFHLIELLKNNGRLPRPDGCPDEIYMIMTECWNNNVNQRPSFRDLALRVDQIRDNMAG

As for “EGF: Epidermal Growth Factor, used as stimulus”, the “stimulation of ErbB2 tyrosine phosphorylation” value in the test with ErbB2 (BR293 cells) worked out at 3.2 fold; with ErbB2 (T47D cells), 5.7 fold. Also, the “induction of ErbB3 tyrosine phosphorylation” value is on record as 6.6 fold in the test with ErbB3 (cell line co-expressing ErbB1, first value printed (cell line not given)) and 6.3 fold in the test on ErbB3 (cell line co-expressing ErbB1, second value printed (cell line not given)).

With `C=CC(=O)Nc1ccc2ncnc(Nc3cccc(Br)c3)c2c1` [PD 168393], the “effect on proliferation over 48 hours” value with MDA-MB-468 cells and in the test on BR293 cells was “no effect on their proliferation” in each case.

For `COc1cc2ncnc(Nc3cccc(Br)c3)c2cc1OC` [PD 153035], in the test with STAT3 [1] (MDA-MB-468 cells, 100 nM), the “weak, heterogeneous DNA-binding by STAT3 in extracts from serum-starved cells” value is on record as “had no effect”. Also, the “effect on proliferation over 48 hours” value in the test on MDA-MB-468 cells and with BR293 cells was “no effect on their proliferation” throughout.

As for `N#C/C(=C/c1ccc(O)c(O)c1)C(=O)NCc1ccccc1` [AG490], the “weak STAT3 DNA-binding” value with STAT3 [1] (BT20 and MDA-MB-468 cells, 100 μM) is “unaffected”. In addition, in the test on STAT3 [2], the “STAT3 activation by conditioned medium from BR293 cells” value is given as “no inhibition was observed”. Moreover, the BC cell proliferation entry in the test on BC cell is reported as “inhibits BC cell proliferation”. Further, the “serum-stimulated tyrosine phosphorylation of JAK2” value on JAK2 is “blocked”. Also, in the test with MCF-10F cells, the “sensitivity to JAK inhibitor” value is given as “insensitive”. The “reduction of cell proliferation” value in the test on MDA-MB-468 cells (AG490 100 μM, over 48 hours) is on record as more than 75%; in the test with BR293 cells (AG490 100 μM, over 48 hours) it was more than 75%. The “serum-stimulated STAT3 tyrosine phosphorylation” value in the test on STAT3 [3] was “blocked”.
